Tests used:
[1] = set-up: species or system human; conditions: in vivo, iv
[2] = set-up: species or system human; conditions: in vivo
[3] = human, in vivo
[4] = set-up: species or system human; conditions: in vivo; remark: listed apart in the source
[5] = set-up: species or system human; conditions: in vivo; remark: listed apart in the source

For “(18S,21S,24S,27S,30S)-27-(2-carboxyethyl)-21-(carboxymethyl)-30-((2S,3R,4R,5R,6S)-6-((2-(4-(3-[F18]fluoropropyl)-1H-1,2,3-triazol-1-yl)acetamido)methyl)-3,4,5-trihydroxytetrahydro-2H-pyran-2-carboxamido)-24-isopropyl-18-methyl-17,20,23,26,29-pentaoxo-4,7,10,13-tetraoxa-16,19,22,25,28-pentaazadotriacontane-1,32-dioic acid [18F-CP-18]”, the “clearance half-time of activity from blood pool / plasma” value ([1]; human) was ~ 30 minutes, the “percentage of plasma-borne activity in the form of 18F-CP-18” value [1] was 99% and the “parent tracer in urine” value [2] was 21%. The “bladder uptake (percent administered activity)” value [3] was 16-27%, the “crossing of the blood-brain barrier” value [3] was “did not appreciably cross the blood-brain barrier” and the “kidney uptake (percent administered activity)” value [3] was 3.5-11%. The “liver uptake (percent administered activity)” value [3] was 3.2-5.7%, the “mean SUV, bladder” value [3] was “approximately 65” and the “mean SUV, heart” value [3] was about 1.5. For the same substance, the “mean SUV, kidneys” value [3] was about 6, the “mean SUV, liver” value [3] was about 1.5 and the “renal system (kidneys and bladder together) uptake” value [3] was 22-31%. The “Normalized number of disintegrations, Brain” value [4] was 0.0089±0.0038 MBq-h/MBq administered, the “Normalized number of disintegrations, Breasts” value [4] was 0.015±0.0047 MBq-h/MBq administered and the “Normalized number of disintegrations, Heart Contents” value [4] was 0.026±0.0036 MBq-h/MBq administered. The “Normalized number of disintegrations, Kidneys” value [4] was 0.059±0.017 MBq-h/MBq administered, the “Normalized number of disintegrations, Liver” value [4] was 0.064±0.024 MBq-h/MBq administered and the “Normalized number of disintegrations, Remainder” value [4] was 0.82±0.14 MBq-h/MBq administered. The “Normalized number of disintegrations, Spleen” value [4] was 0.0090±0.0024 MBq-h/MBq administered, the “Normalized number of disintegrations, Testes” value [4] was 0.0057±0.0017 MBq-h/MBq administered and the “Normalized number of disintegrations, Urinary Bladder Wall (1.0-hr)” value [4] was 0.29±0.033 MBq-h/MBq administered. The “Normalized number of disintegrations, Urinary Bladder Wall (4.8-hr)” value [4] was 1.1±0.13 MBq-h/MBq administered, the “Estimated organ dose per unit administered activity, Brain” value [5] was 2.4±0.6 μGy/MBq and the “Estimated organ dose per unit administered activity, Breasts” value [5] was 7.7±3.6 μGy/MBq. The “Estimated organ dose per unit administered activity, Heart Wall” value [5] was 10±0.8 μGy/MBq, the “Estimated organ dose per unit administered activity, Kidneys” value [5] was 39±10 μGy/MBq and the “Estimated organ dose per unit administered activity, Thymus” value [5] was 4.8±0.7 μGy/MBq. The “Estimated organ dose per unit administered activity, Thyroid” value [5] was 4.2±0.7 μGy/MBq and the “adult female phantom doses, higher than adult male phantom” value [5] was 20–34%.

— paper PMC7607624 (Journal of nuclear medicine : official publication, Society …, 2013)
